# Data: patent US12616713B2, “Methods for enhancing vascular density” (priority 2016, dated 2026)
# Key:
# [1] = system: MLECs from WT and ESKO mice; assay: Apoptosis of serum-starved MLECs (Annexin V/PI); type: cell-based, mouse; conditions: serum-starved overnight, SIRT1-dependent
# Protocol: FIG. 38 is (A) a graph showing quantification of the relative cell number (n=12) of HUVECs incubated with PBS or NMN (0.5 mM) for 48 h in complete growth medium and cell number determined using flow cytometry. (B) a graph showing the number of apoptotic cells (Annexin V+/PI−) (n=12) when MLECs from WT and ESKO mice were serum-starved overnight, then assessed for apoptosis by Annexin V/PI staining and analyzed using flow cytometry. Data are expressed as mean±SEM. *p<0.05, **p<0.005, ***p<0.0005, ^δp<0.00005 by Student's t test (A), or two-way (B) ANOVA with Bonferroni's Multiple Comparisons Tests. (C) a schematic diagram of a model of how SIRT1 promotes sprouting angiogenesis. […]
# HUVECs were treated with PBS (vehicle), NaHS (100 μM), NMN (500 μM) or NMN+NaHS for 6 h, followed by exposure to H2O2 (600 μM) for another 4 h. After treatments, the number of apoptotic cells was determined using Annexin V-FITC apoptosis detection kit (eBioscience) as per manufacturer's instructions. […] After mixing gently, the fluorescence intensity was detected with a flow cytometry (FACSCanto II Analyzer, BD Biosciences) at emission at 530 nm and 575 nm and excitation at 488 nm. Annexin-V and PI staining were detected with a flow cytometry (FACSCanto II Analyzer, BD Biosciences) at emission at 530 nm and 575 nm and excitation at 488 run.
# HUVECs = assay: Wound scratch assay, HUVECs; type: cell-based, human; conditions: Scr or SIRT1 siRNA HUVECs, H2O2 150 μM 1 h, NaHS 100 μM and/or NMN 500 μM, 6 h
# Protocol: ECs were cultured until forming a confluent monolayer and a scratch was made using a 200 μL pipette tip. Then the cells were allowed to migrate+/−NaHS (0.1 mM) and +/−NMN (0.5 mM) in EGM-2 medium for 6 hrs. Images were taken at the same location using a brightfield inverted microscope (Olympus 2467) every 2 h. The area of gap closure was calculated using ImageJ software. In some experiments, HUVECs were transduced with Scr or SIRT1 siRNA and cultured until forming a confluent monolayer. The cells were exposed to H2O2 (150 μM) for 1 h and a scratch was made using a 200 μL pipette tip. Then the cells were allowed to migrate with PBS (vehicle), NaHS (100 μM) and/or NMN (500 μM) in EGM-2 medium for 6 h. Images were taken at the same location using a brightfield inverted microscope (Olympus 2467) every 2 h. The area of gap closure was calculated using ImageJ software.
# C57BL/6J mice [2] = assay: Treadmill endurance testing; type: in vivo, mouse
# Protocol: Endurance testing. Treadmill tests were carried out on a 1050-RM Exer 3/6 Open Treadmill (Columbus Instruments, OH). Mice were acclimatized to the treadmill system for 3 days prior to endurance testing by running at 10-15 m/min for 20 min. In low intensity endurance testing, the speed started at 5 m/min for 5 min (warm up), and then the speed was increased by 1 every minute until 21 m/min and kept constant. In high intensity endurance testing, the speed started at 13 m/min for 5 min (warm up) at 5° inclination, and then the speed was increased by 1 every minute until 20 m/min and kept constant for 20 min. Every 20 min, the speed was increased by 5 m/min and held constant for 20 min. Mice were considered exhausted when they sat on the shocker plate for more than 10 sec without attempting to reinitiate running.
# C57BL/6J mice [3] = assay: Contrast-enhanced ultrasound of hindlimb muscle perfusion; type: in vivo, mouse; conditions: 20-month old mice, NMN-treated versus vehicle
# Protocol: Mice were anesthetized with isoflurane (1.5-2%, 500 ml 02/min), hindlimbs were shaved using depilatory cream and a 27-gauge catheter was placed into each mouse's tail and kept in place with surgical tape. Each mouse was placed in a supine position on a platform heated to 38° C. with each paw taped to a surface electrode to monitor ECG, heart rate, and respiratory rate. Contrast-enhanced ultrasound (CEU) (Vevo 2100, Visualsonics, Canada) was performed at an imaging frequency of 18 MHz. The probe was placed on the medial side of the leg to image the lower hindlimb in a sagittal plane. A bolus injection of microbubbles (Vevo MicroMarker, Canada) were injected through the tail vein catheter according to the manufacturer's instructions. A cine loop was recorded at a frame rate of 20 frames/s for a total of 1,000 frames. Curve fit analysis was used to measure echo power over time. The difference in maximum and minimum video intensity was determined as the peak enhancement and was the variable used to determine muscle perfusion.
# [4] = 20-month old mice, low intensity treadmill test
smiles,measurement,setting,value
"NC(=O)c1ccc[n+]([C@@H]2O[C@H](COP(=O)([O-])O)[C@@H](O)[C@H]2O)c1 [NMN, nicotinamide mononucleotide]",apoptosis in ECs (Annexin V+/PI-),[1],reduced apoptosis
same,cell migration (percentage of closed gaps),HUVECs,had no effect
same,distance run further than untreated mice,"C57BL/6J mice [2]; 20-month old mice, high-endurance exercise regimen",80%
same,distance run until exhaustion,C57BL/6J mice [2]; [4],686 meters
same,"low-intensity endurance, improvement over the untreated mice",C57BL/6J mice [2]; [4],56%
same,time and distance to exhaustion (endurance),"C57BL/6J mice [2]; 31-month old mice, low intensity treadmill test",significant trend towards increased time and distance to exhaustion
same,"exercise capacity, including endurance",C57BL/6J mice [2]; mice (summary statement),increased exercise capacity
same,resting muscle perfusion (peak enhancement),C57BL/6J mice [3],increased resting muscle perfusion
